Results on two compounds are retold here after ChEMBL document CHEMBL3784936, “Classification of matching molecular series on the basis of SAR phenotypes and structural relationships” (Medchemcomm, 2016).

One experiment concerns the target T1, Oxytocin receptor (Homo sapiens, UniProt P30559).
T1 sequence (P30559 whole entry): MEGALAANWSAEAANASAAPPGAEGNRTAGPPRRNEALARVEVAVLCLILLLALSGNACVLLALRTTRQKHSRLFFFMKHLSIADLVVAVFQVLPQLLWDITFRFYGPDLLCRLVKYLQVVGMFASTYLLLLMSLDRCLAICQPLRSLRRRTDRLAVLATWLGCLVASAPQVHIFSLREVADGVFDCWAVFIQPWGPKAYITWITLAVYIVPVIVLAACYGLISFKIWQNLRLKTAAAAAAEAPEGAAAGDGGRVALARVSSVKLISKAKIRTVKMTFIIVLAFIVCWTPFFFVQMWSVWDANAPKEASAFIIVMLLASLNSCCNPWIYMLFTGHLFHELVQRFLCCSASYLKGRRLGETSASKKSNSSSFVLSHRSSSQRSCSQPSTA
In words: Inhibition of oxytocin receptor (unknown origin).

A further experiment addresses T2, Adenosine receptor A3 (Homo sapiens, UniProt P0DMS8).
T2 sequence (P0DMS8 whole entry): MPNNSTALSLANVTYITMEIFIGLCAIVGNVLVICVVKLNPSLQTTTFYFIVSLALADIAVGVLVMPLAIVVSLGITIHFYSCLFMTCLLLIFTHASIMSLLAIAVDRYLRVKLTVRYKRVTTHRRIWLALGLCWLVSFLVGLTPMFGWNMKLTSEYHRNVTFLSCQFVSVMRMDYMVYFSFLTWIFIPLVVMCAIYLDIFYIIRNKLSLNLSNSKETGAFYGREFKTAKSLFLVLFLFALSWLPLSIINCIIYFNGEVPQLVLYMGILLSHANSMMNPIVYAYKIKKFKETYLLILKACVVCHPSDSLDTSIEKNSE
In words: Inhibition of adenosine A3 receptor (unknown origin).

As a reminder, the Ki is a dissociation constant, usually derived from enzyme kinetics or from competition with a known ligand. A low value points to a stronger hold on the target. At Oxytocin receptor, `CCCCOc1ccc(S(=O)(=O)N(CC(=O)N/N=C2\C(=O)Nc3ccccc32)c2ccc(Cl)cc2)cc1` showed a Ki of 0.0178 µM.
In turn, `Nc1ncnc2c1ncn2[C@@H]1O[C@H](C(=O)NC2CC2)[C@@H](O)[C@H]1O` had an inhibition constant Ki at Adenosine receptor A3 of 0.178 µM.
